According to patent publication EP4417607A1, “HETEROCYCLIC COMPOUND AS SOS1 INHIBITOR AND USES THEREOF” (Nanjing Zaiming Pharmaceutical Co., Ltd., priority 2021, dated 2023):

Experiments:
[1] = tested on: p-ERK pathway in H358 cells; experiment: p-ERK pathway inhibition in H358 cells (Advanced phospho-ERK (Thr202/Tyr204) cellular kit, HTRF); assay type: cell-based; details: Homo sapiens, NCI-H358, 1 h compound incubation
Outline: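 IC50 from an 8-point four-parameter fit of % inhibition of ERK Thr202/Tyr204 phosphorylation, measured by HTRF 665/620 ratio in lysates. H358 cells were seeded at 50000/well, starved overnight without serum, and exposed to compound 1 h at 37 °C; controls were cell-free (100%) and untreated (0%).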

[2] = target: T1, CYP2D6 (Homo sapiens, UniProt P10635); experiment: CYP2D6 enzymatic activity inhibition in human liver microsomes; assay type: in vitro ADME; details: IC50, human liver microsome, substrate dextromethorphan
T1 construct: Human liver microsome (Corning 452117); tissue Corning 452117; host or cells: human liver microsomes
Description: (§1) The inhibition of CYP2C9, CYP2D6, and CYP3A4 enzymatic activity by the compound of the present invention was determined using the following method. • I. Experimental materials and instruments • 1. Human liver microsome (Corning 452117) • 2. Na2HPO4 (Sigma SLBZ6180) • 3. KH2PO4 (Sigma SLBT6559) • 4. NADPH (Solarbio 705Y021) • […] • 6. Positive substrates diclofenac (Sigma SLBV3438), dextromethorphan (TRC 3-EDO-175-1), and midazolam (Cerilliant FE01161704) • 7. Positive inhibitors sulfaphenazole (D. Ehrenstorfer GmbH 109012), quinidine (TCI WEODL-RE), and ketoconazole (Sigma 100M1091V) • 7. AB Sciex Triple Quad 5500 liquid chromatography-mass spectrometry system • II. Procedures • 1. Preparation of 100 mM phosphate-buffered saline (PBS): 7.098 g Na2HPO4 was weighed. 500 mL pure water was added. The mixture was dissolved by sonication to give solution A. 3.400 g KH2PO4 was weighed. 250 mL pure water was added. The mixture was dissolved by sonication to give solution B. The solution A was placed in a stirrer, and the solution B was slowly added until the pH reached 7.4 to prepare the 100 mM PBS buffer. • 2. A 10 mM NADPH solution was prepared with a 100 mM PBS buffer. A 10 mM stock solution of the compound of the present invention was diluted with DMSO to give a compound working solution at a concentration of 200× (6000, 2000, 600, 200, 60, 20, and 0 µM). The positive inhibitor stock solution was diluted with DMSO to give a positive inhibitor working solution at a concentration of 200× (sulfaphenazole, 1000, 300, 100, 30, 10, 3, and 0 µM; quinidine/ketoconazole, 100, 30, 10, 3, 1, 0.3, and 0 µM). Substrate working solutions (120 µM diclofenac, 400 µM dextromethorphan, and 200 µM midazolam) at a concentration of 200× were prepared with water, acetonitrile, or acetonitrile/methanol. • 3. […]
(§2) The values were calculated by Excel XLfit 5.3.1.3 to obtain IC50 values for the compounds of the present invention against CYP2C9, CYP2D6, and CYP3A4 as shown in Table 8. […]

[3] = target: T2, CYP3A4 (Homo sapiens, UniProt P08684); experiment: CYP3A4 enzymatic activity inhibition in human liver microsomes; assay type: in vitro ADME; details: IC50, human liver microsome, substrate midazolam
T2 construct: Human liver microsome (Corning 452117); tissue Corning 452117; host or cells: human liver microsomes
Description: as §1, §2

T2 sequence (P08684 whole entry): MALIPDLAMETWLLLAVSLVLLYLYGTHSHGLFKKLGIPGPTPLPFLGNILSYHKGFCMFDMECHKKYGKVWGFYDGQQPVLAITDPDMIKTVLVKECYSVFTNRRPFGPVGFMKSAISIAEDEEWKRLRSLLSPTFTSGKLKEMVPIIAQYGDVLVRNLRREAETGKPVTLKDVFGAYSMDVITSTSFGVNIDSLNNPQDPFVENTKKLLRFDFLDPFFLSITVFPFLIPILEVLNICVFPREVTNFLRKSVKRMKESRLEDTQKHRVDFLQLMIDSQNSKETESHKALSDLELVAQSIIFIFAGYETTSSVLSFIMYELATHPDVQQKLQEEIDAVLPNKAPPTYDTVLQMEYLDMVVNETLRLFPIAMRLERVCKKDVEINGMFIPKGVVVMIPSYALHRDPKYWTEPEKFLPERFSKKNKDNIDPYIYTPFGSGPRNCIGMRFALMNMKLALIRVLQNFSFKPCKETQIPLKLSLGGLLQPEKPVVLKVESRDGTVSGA
T1 sequence (P10635 whole entry): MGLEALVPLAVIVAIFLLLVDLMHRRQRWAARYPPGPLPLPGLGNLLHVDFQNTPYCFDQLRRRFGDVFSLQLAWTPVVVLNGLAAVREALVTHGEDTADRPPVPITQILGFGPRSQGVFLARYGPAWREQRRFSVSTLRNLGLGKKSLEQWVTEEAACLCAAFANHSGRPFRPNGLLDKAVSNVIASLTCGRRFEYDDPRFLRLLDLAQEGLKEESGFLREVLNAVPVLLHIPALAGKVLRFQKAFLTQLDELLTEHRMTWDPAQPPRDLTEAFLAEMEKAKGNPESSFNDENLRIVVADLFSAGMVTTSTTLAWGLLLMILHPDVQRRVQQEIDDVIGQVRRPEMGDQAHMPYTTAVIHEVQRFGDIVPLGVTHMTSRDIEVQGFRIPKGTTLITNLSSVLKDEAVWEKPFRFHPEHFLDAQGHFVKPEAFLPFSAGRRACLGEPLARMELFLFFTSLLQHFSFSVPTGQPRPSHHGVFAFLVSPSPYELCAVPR

| Compound | IC50 [1] [nM] | IC50 [2] [nM] | IC50 [3] [nM] |
| --- | --- | --- | --- |
| Cc1nc(N[C@H](C)c2cccc(C(F)F)c2F)c2cn(C3(CF)CC3)c(=O)c(N3CCOCC3)c2n1 [Example 34, (R)-4-((1-(3-(difluoromethyl)-2-fluorophenyl)ethyl)amino)-6-(1-(fluoromethyl)cyclopropyl)-2-methyl-8-morpholinylpyrido[4,3-d]pyrimidine-7(6H)-one] | 9.18 |  |  |
| [2H]C([2H])([2H])Oc1c(=O)n(C2(CF)CC2)cc2c(N[C@H](C)c3cccc(C(F)F)c3F)nc(C)nc12 [Example 23, (R)-4-((1-(3-(difluoromethyl)-2-fluorophenyl)ethyl)amino)-6-(1-(fluoromethyl)cyclopropyl)-8-(methoxy-d3)-2-methylpyrido[4,3-d]pyrimidine-7(6H)-one] | 44.9 | > 30000 | > 30000 |
| Cc1nc(N[C@H](C)c2cccc(C(F)F)c2F)c2cn(C3(CF)CC3)c(=O)c(N3CCOC[C@@H]3C)c2n1 [Example 40, 4-(((R)-1-(3-(difluoromethyl)-2-fluorophenyl)ethyl)amino)-6-(1-(fluoromethyl)cyclopropyl)-2-methyl-8-((S)-3-methylmorpholine)pyrido[4,3-d]pyrimidine-7(6H)-one] | 19.9 | > 30000 | > 30000 |
| COc1c(=O)n(N2CCOCC2)cc2c(N[C@H](C)c3cccc(C(F)F)c3F)nc(C)nc12 [Example 20, (R)-4-((1-(3-(difluoromethyl)-2-fluorophenyl)ethyl)amino)-8-methoxy-2-methyl-6-morpholinepyrido[4,3-d]pyrimidine-7(6H)-one] | 41.9 |  |  |
| [2H][C@](C)(Nc1nc(C)nc2c(N3CCOCC3)c(=O)n(C3(CF)CC3)cc12)c1cccc(C(F)F)c1F [Example 55, (R)-4-((1-(3-(difluoromethyl)-2-fluorophenyl)ethyl-1-d)amino)-6-(1-(fluoromethyl)cyclopropyl)-2-methyl-8-morpholinylpyrido[4,3-d]pyrimidine-7(6H)-one] | 30.3 | > 30000 | > 30000 |
